Where “and” joins values, the source holds several entries; their conditions need not be identical. Equal values may be shown once.
Target: T1, CXCR2 (Homo sapiens (Human), UniProt P25025)
Experiment: Agonist activity: intracellular calcium release in human neutrophils in the absence of GROα
Type: cell-based
Settings: human neutrophils, agonist calcium release
Protocol: (§1) In Tables 1-5, the IC50 or EC50 values were determined using the following assay. This assay measures intracellular calcium release via fluorescence as an indication of CXCR2 receptor activation by the physiologic agonist GROα. The assay is a Ca^2+ mobilization assay that measures changes in intracellular Ca^2+ with a FlexStation II scanning fluorometer using a FLIPR-3 Calcium Assay Kit (Molecular Devices, Sunnyvale, Calif.). The procedure is as follows:
(§2) 9. The maximum change in fluorescence, expressed in arbitrary units over baseline (Max-Min) was used to determine the GROα response. […] Therapeutic Activity
(§3) The maximum change in fluorescence, expressed in arbitrary units over baseline (Max-Min), was used to determine the GROα response.
Intracellular calcium release is a hallmark of CXCR2 activation by endogenous agonists, such as GROα and IL-8.

T1 sequence (P25025 whole entry): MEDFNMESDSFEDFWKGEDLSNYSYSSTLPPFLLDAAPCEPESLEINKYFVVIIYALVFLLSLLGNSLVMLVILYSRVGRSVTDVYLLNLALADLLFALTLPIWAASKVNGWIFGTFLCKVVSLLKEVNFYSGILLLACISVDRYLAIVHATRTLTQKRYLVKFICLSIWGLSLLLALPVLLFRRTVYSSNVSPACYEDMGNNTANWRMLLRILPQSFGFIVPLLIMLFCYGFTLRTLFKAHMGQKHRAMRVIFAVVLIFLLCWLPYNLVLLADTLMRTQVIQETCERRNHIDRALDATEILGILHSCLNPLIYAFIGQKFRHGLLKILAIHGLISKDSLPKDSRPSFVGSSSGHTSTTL

Row | Structure (SMILES) | EC50
1 | O=C(Nc1ccc(F)cc1)c1ccc(SCc2ccccc2O)nc1 [Compound 13] | 2400 nM
2 | O=C(Nc1ccc(F)cc1)c1ccc(SCc2cc(OC(F)(F)F)ccc2O)nc1 [Compound 14, 6-(2-hydroxy-5-trifluoromethoxy-benzylsulfanyl)-N-(4-fluoro-phenyl)-nicotinamide] | 1800 nM and 1810 nM

Same assay, conditions: relative to the response to 25 nM GROα

Row | Structure (SMILES) | Magnitude of Agonist Response (% of GROα only Control) [%]
3 | O=C(Nc1ccc(F)cc1)c1ccc(SCc2ccccc2O)nc1 [Compound 13] | 60
4 | O=C(Nc1ccc(F)cc1)c1ccc(SCc2cc(OC(F)(F)F)ccc2O)nc1 [Compound 14, 6-(2-hydroxy-5-trifluoromethoxy-benzylsulfanyl)-N-(4-fluoro-phenyl)-nicotinamide] | 15

Target: T1, CXCR2
Experiment: Inhibition of GROα-mediated intracellular calcium release in human neutrophils (FLIPR-3 Ca2+ mobilization)
Type: cell-based
Settings: human neutrophils, 25 nM GROα; read-out: IC50
Protocol: as §1
1. Human neutrophils were suspended in HBSS^− (without Ca^2+ and Mg^2+) containing 10 mM HEPES and FLIPR Calcium 3 dye (3.1×10^7 cells in total volume 1.7 mL).
2. […] As controls, 2 μL of DMSO (1% final concentration) were added to other 2 tubes.
3. Cells were incubated for 30 min at 37° C.
4. After dye loading, tubes were centrifuged at 6,000 rpm for 1 min, supernatant was removed and cell pellet was re-suspended in 200 μL of HBSS^+ (with Ca^2+ and Mg^2+) containing 10 mM HEPES.
5. The compound or DMSO (control) was added again at the same concentrations that were used during cell loading.
6. The cell suspension was aliquoted into a 96-well Reading Plate (Corning) in a volume of 90 μL (10^5 cells/well). The Compound Plate contained physiologic agonist (GROα in HBSS^−) or HBSS^− (control).
as §2
Briefly, human neutrophils were suspended in HBSS^− (without Ca^2+ and Mg^2+) containing 10 mM HEPES and FLIPR Calcium 3 dye (3.1×10^7 cells in total volume 1.7 mL). […] As controls, 2 μL of DMSO (1% final concentration) were added to 2 other tubes. Cells were incubated for 30 min at 37° C. After dye loading, tubes were centrifuged at 6,000 rpm for 1 min, supernatant was removed and the cell pellet was re-suspended in 200 μL of HBSS^+ (with Ca^2+ and Mg^2+) containing 10 mM HEPES. The test compound or DMSO (control) was added again at the same concentrations that were used during cell loading. The cell suspension was aliquoted into a 96-well Reading Plate (Corning) in a volume of 90 μL (10^5 cells/well). The Compound Plate contained agonist (GROα in HBSS^−) or HBSS^− (control).
as §3

Row | Structure (SMILES) | IC50 [nM]
5 | O=C(Nc1ccc(F)cc1)c1ccc(SCc2cc(OC(F)(F)F)ccc2O)nc1 [Compound 14, 6-(2-hydroxy-5-trifluoromethoxy-benzylsulfanyl)-N-(4-fluoro-phenyl)-nicotinamide] | 28 ± 6
6 | Cn1c(C(=O)CSc2ccc(C(=O)Nc3ccc(F)cc3)cn2)nc2ccccc21 [Compound 151] | 703 ± 291
7 | O=C(Nc1ccc(F)cc1)c1ccc(SCC(=O)c2cc(Br)cc3c2OCC3)nc1 [Compound 152] | 529 ± 440
8 | O=C(Nc1ccc(F)cc1)c1ccc(SCC(=O)C(c2ccccc2)c2ccccc2)nc1 [Compound 153] | 1230
9 | CN(C(=O)c1ccc(SCc2ccccc2B(O)O)nc1)c1ccc(F)cc1 [Compound 154] | > 5000
10 | O=C(c1ccc(SCc2ccccc2B(O)O)nc1)N(Cc1ccccn1)c1ccc(F)cc1 [Compound 155] | 78 ± 18
11 | O=C(c1ccc(SCc2ccccc2B(O)O)nc1)N(CC1CCCCN1)c1ccc(F)cc1 (stereo not drawn) [Compound 156] | > 5000
12 | O=C(c1ccc(SCc2ccccc2B(O)O)nc1)N(Cc1ccncc1)c1ccc(F)cc1 [Compound 157] | 890 ± 670
13 | O=C(O)CN(C(=O)c1ccc(SCc2ccccc2B(O)O)nc1)c1ccc(F)cc1 [Compound 158] | 1990 ± 460
14 | O=C(Nc1ccc(OC(F)(F)F)cc1)c1ccc(SCc2ccccc2B(O)O)nc1 [Compound 159] | 278 ± 148
15 | O=C(Nc1ccc(-c2nn[nH]n2)cc1)c1ccc(SCc2ccccc2B(O)O)nc1 [Compound 161] | > 10000
16 | O=C(Nc1ccncc1)c1ccc(SCc2ccccc2B(O)O)nc1 [Compound 162] | 520 ± 263
17 | O=C(Nc1ccc(O)cc1)c1ccc(SCc2ccccc2B(O)O)nc1 [Compound 163] | 105 ± 44
18 | O=C(Nc1ccc(F)cn1)c1ccc(SCc2ccccc2B(O)O)nc1 [Compound 164] | 294 ± 119
19 | O=C(Nc1ccc(F)cc1O)c1ccc(SCc2ccccc2B(O)O)nc1 [Compound 165] | 37 ± 7
20 | O=C(Nc1ccc(F)c(C(=O)O)c1)c1ccc(SCc2ccccc2B(O)O)nc1 [Compound 166] | > 10000

Same assay, conditions: read-out: IC50

Row | Structure (SMILES) | IC50 [nM]
21 | O=C(O)c1ccc(NC(=O)c2ccc(SCc3ccccc3B(O)O)nc2)cc1 [Compound 160] | > 10000

Reference: US8981106B2, “Pyrimidinecarboxamides as CXCR2 modulators” (Syntrix Biosystems, Inc., priority 2009, dated 2015)
